Results reported in PubChem BioAssay AID248 (DTP/NCI, 2004).
Values joined by “and” are separate entries in the source; they are usually repeats but may differ in a detail not shown here. Equal values may be shown once. Inconclusive results and toxic doses are left out. Cut-off read from the data, not from the text of the source: active = T/C of 150% or more; inactive = T/C below 125%.

Test system: L1210 leukemia ip in BDF1 mice, survival T/C
Experiment: NCI In Vivo Anticancer Drug Screen. Data for tumor model L1210 Leukemia (intraperitoneal) in B6D2F1 (BDF1) mice
Details: endpoint: mean survival time, higher = longer survival
How it was run: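 Tumor was transplanted into mice, which were then dosed with test compound or vehicle alone. Survival was recorded for each group, and the treated figure was expressed relative to the control figure.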

[1] = dose: 100.0 mg/kg/injection, schedule: Q01DX001 (ip), vehicle: saline
[2] = dose: 100.0 mg/kg/injection, schedule: Q01DX009 (ip), vehicle: saline
[3] = dose: 200.0 mg/kg/injection, schedule: Q01DX001 (ip), vehicle: saline
[4] = dose: 200.0 mg/kg/injection, schedule: Q01DX009 (ip), vehicle: saline
[5] = dose: 400.0 mg/kg/injection, schedule: Q01DX001 (ip), vehicle: saline
[6] = dose: 100.0 mg/kg/injection, schedule: Q04DX003 (ip), vehicle: saline
[7] = dose: 200.0 mg/kg/injection, schedule: Q04DX003 (ip), vehicle: saline
[8] = dose: 100.0 mg/kg/injection, schedule: Q01DX009 (ip), vehicle: Klucel (hydroxypropylcellulose) (HPC)
[9] = dose: 100.0 mg/kg/injection, schedule: Q04DX002 (ip), vehicle: Klucel (hydroxypropylcellulose) (HPC)
[10] = dose: 100.0 mg/kg/injection, schedule: Q01DX001 (ip), vehicle: saline with Tween-80
[11] = dose: 200.0 mg/kg/injection, schedule: Q01DX001 (ip), vehicle: saline with Tween-80
[12] = dose: 400.0 mg/kg/injection, schedule: Q01DX001 (ip), vehicle: saline with Tween-80
[13] = dose: 100.0 mg/kg/injection, schedule: Q01DX009 (ip), vehicle: saline with Tween-80
[14] = dose: 100.0 mg/kg/injection, schedule: Q04DX003 (ip), vehicle: saline with Tween-80
[15] = dose: 200.0 mg/kg/injection, schedule: Q04DX003 (ip), vehicle: saline with Tween-80
[16] = dose: 400.0 mg/kg/injection, schedule: Q04DX003 (ip), vehicle: saline with Tween-80
[17] = dose: 50.0 mg/kg/injection, schedule: Q01DX009 (ip), vehicle: saline with Tween-80
[18] = dose: 50.0 mg/kg/injection, schedule: Q01DX001 (ip), vehicle: saline

Measured: T/C

COC(=O)c1ccc(=O)n(C/C=C(\C)CCC=C(C)C)c1
inactive: [1] 95 % of control | [2] 104 % of control | [3] 97 % of control | [4] 90 % of control | [5] 101 % of control | dose: 400.0 mg/kg/injection, schedule: Q01DX009 (ip), vehicle: saline 101 % of control

O=C(C1C2C=CC(CC2)C1C(=O)N1CCOCC1)N1CCOCC1 (centres undefined)
inactive: [6] 100 % of control | [7] 96 % of control | dose: 400.0 mg/kg/injection, schedule: Q04DX003 (ip), vehicle: saline 96 % of control

Cc1ccc(N=CNN=C(N)N)cc1
inactive: dose: 120.0 mg/kg/injection, schedule: Q01DX Z (oral), vehicle: methylcellulose (MC) 97 % of control | dose: 240.0 mg/kg/injection, schedule: Q01DX Z (ip), vehicle: methylcellulose (MC) 101 % of control | dose: 240.0 mg/kg/injection, schedule: Q01DX Z (oral), vehicle: methylcellulose (MC) 96 % of control | dose: 360.0 mg/kg/injection, schedule: Q01DX Z (ip), vehicle: methylcellulose (MC) 104 % of control | dose: 480.0 mg/kg/injection, schedule: Q01DX Z (ip), vehicle: methylcellulose (MC) 102 % of control | dose: 480.0 mg/kg/injection, schedule: Q01DX Z (oral), vehicle: methylcellulose (MC) 92 % of control

Cc1cc(=O)cc(C(=O)O)o1
inactive: dose: 75.0 mg/kg/injection, schedule: Q01DX001 (ip), vehicle: saline 107 % of control | dose: 150.0 mg/kg/injection, schedule: Q01DX001 (ip), vehicle: saline 107 % of control | dose: 300.0 mg/kg/injection, schedule: Q01DX001 (ip), vehicle: saline 109 % of control

N#C/C(=C\c1ccccc1Cl)c1cccc(Cl)c1
inactive: dose: 25.0 mg/kg/injection, schedule: Q01DX009 (ip), vehicle: other 107 % of control | dose: 50.0 mg/kg/injection, schedule: Q01DX009 (ip), vehicle: other 96 % of control | dose: 100.0 mg/kg/injection, schedule: Q01DX009 (ip), vehicle: other 93 % of control and 90 % of control

O=[N+]([O-])c1cc(S(=O)(=O)c2ccc(Nc3ccccc3)c([N+](=O)[O-])c2)ccc1Nc1ccccc1
inactive: dose: 100.0 mg/kg/injection, schedule: Q04DX002 (ip), vehicle: gum acacia 93 % of control | dose: 200.0 mg/kg/injection, schedule: Q04DX002 (ip), vehicle: gum acacia 103 % of control | dose: 400.0 mg/kg/injection, schedule: Q04DX002 (ip), vehicle: gum acacia 97 % of control

CN(/C(N)=N/[N+](=O)[O-])c1cccnc1
inactive: dose: 6.0 mg/kg/injection, schedule: Q04DX002 (ip), vehicle: Klucel (hydroxypropylcellulose) (HPC) 103 % of control | dose: 12.0 mg/kg/injection, schedule: Q04DX002 (ip), vehicle: Klucel (hydroxypropylcellulose) (HPC) 103 % of control | dose: 25.0 mg/kg/injection, schedule: Q04DX002 (ip), vehicle: Klucel (hydroxypropylcellulose) (HPC) 103 % of control | dose: 50.0 mg/kg/injection, schedule: Q01DX009 (ip), vehicle: Klucel (hydroxypropylcellulose) (HPC) 103 % of control | dose: 50.0 mg/kg/injection, schedule: Q04DX002 (ip), vehicle: Klucel (hydroxypropylcellulose) (HPC) 95 % of control | [8] 107 % of control | [9] 91 % of control and 92 % of control

CC(=O)OC12CCC34CCC5(CCC(OC(C)=O)(O1)C5C32)O4 (centres undefined)
inactive: [10] 105 % of control | [11] 98 % of control | [12] 98 % of control

CC1CC(C)(C)CC2(C1)OCC(CCl)O2 (centres undefined)
inactive: dose: 100.0 mg/kg/injection, schedule: Q04DX003 (ip), vehicle: saline sonified 100 % of control | dose: 200.0 mg/kg/injection, schedule: Q04DX003 (ip), vehicle: saline sonified 98 % of control | dose: 400.0 mg/kg/injection, schedule: Q04DX003 (ip), vehicle: saline sonified 96 % of control

C(=N/N=C/c1ccccn1)/c1cccnc1
inactive: dose: 100.0 mg/kg/injection, schedule: Q01DX001 (ip), vehicle: carboxymethylcellulose (CMC) 94 % of control | dose: 200.0 mg/kg/injection, schedule: Q01DX001 (ip), vehicle: carboxymethylcellulose (CMC) 96 % of control | dose: 400.0 mg/kg/injection, schedule: Q01DX001 (ip), vehicle: carboxymethylcellulose (CMC) 96 % of control

C[N+](C)(C)CCCC[N+](C)(C)C
inactive: dose: 50.0 mg/kg/injection, schedule: Q01DX009 (ip), vehicle: saline 110 % of control | [2] 100 % of control and 106 % of control | [6] 102 % of control | [4] 98 % of control and 111 % of control | [7] 100 % of control

O=C(O)CSCc1nc2ccccc2[nH]1
inactive: [13] 92 % of control | [14] 101 % of control | dose: 200.0 mg/kg/injection, schedule: Q01DX009 (ip), vehicle: saline with Tween-80 100 % of control | [15] 92 % of control | dose: 400.0 mg/kg/injection, schedule: Q01DX009 (ip), vehicle: saline with Tween-80 96 % of control | [16] 95 % of control

Cc1nc(Cl)c(C(N)=O)nc1C
inactive: dose: 25.0 mg/kg/injection, schedule: Q01DX009 (ip), vehicle: saline with Tween-80 91 % of control | [17] 96 % of control | [13] 96 % of control and 97 % of control

Cc1ccc2c(ccc3cc(C)ccc32)c1
inactive: [9] 122 % of control | dose: 200.0 mg/kg/injection, schedule: Q04DX002 (ip), vehicle: Klucel (hydroxypropylcellulose) (HPC) 101 % of control | dose: 400.0 mg/kg/injection, schedule: Q04DX002 (ip), vehicle: Klucel (hydroxypropylcellulose) (HPC) 97 % of control

Cc1cccc(-n2cnc3c(=O)[nH]c(N)nc32)c1
inactive: dose: 100.0 mg/kg/injection, schedule: Q04DX003 (ip), vehicle: Klucel (hydroxypropylcellulose) (HPC) 95 % of control | dose: 200.0 mg/kg/injection, schedule: Q04DX003 (ip), vehicle: Klucel (hydroxypropylcellulose) (HPC) 95 % of control | dose: 400.0 mg/kg/injection, schedule: Q04DX003 (ip), vehicle: Klucel (hydroxypropylcellulose) (HPC) 93 % of control

Cc1ccc(Nc2nc(N)nc(N)c2Cl)cc1
inactive: [17] 94 % of control | [13] 91 % of control

C[C@]12CCC(=O)C=C1CC[C@@H]1[C@@H]2[C@@H](O)C[C@@]2(C)[C@H]1CC[C@]2(O)C(=O)COC(=O)CCC1CCCC1
inactive: dose: 50.0 mg/kg/injection, schedule: Q04DX003 (sc), vehicle: steriod suspending solution 100 % of control | dose: 100.0 mg/kg/injection, schedule: Q04DX003 (sc), vehicle: steriod suspending solution 96 % of control | dose: 200.0 mg/kg/injection, schedule: Q04DX003 (sc), vehicle: steriod suspending solution 97 % of control | dose: 400.0 mg/kg/injection, schedule: Q04DX003 (sc), vehicle: steriod suspending solution 96 % of control

CCCN(CCC)CC(C)O (centres undefined)
inactive: [6] 93 % of control | [7] 97 % of control

ICCC(c1ccccc1)(c1ccccc1)c1ccccc1
inactive: [18] 108 % of control | [1] 96 % of control | [3] 96 % of control | [5] 96 % of control

COC(=O)/C(C)=C/CC(C)C(=O)OC (centres undefined)
inactive: [18] 102 % of control | [1] 96 % of control | [3] 105 % of control

COc1ccc(NC(=O)C2C3C=CC(C3)C2C(=O)Nc2ccc(OC)cc2)cc1 (centres undefined)
inactive: [14] 100 % of control | [15] 87 % of control | [16] 91 % of control

CC(=O)NC1C(OC(=O)c2ccccc2)OC(CO)C(O)C1OC(=O)c1ccccc1 (centres undefined)
inactive: [10] 101 % of control | [11] 105 % of control | [12] 94 % of control

CCCCCCCCCCCCCCCCC(O)CO (centres undefined)
inactive: [8] 96 % of control | dose: 200.0 mg/kg/injection, schedule: Q01DX009 (ip), vehicle: Klucel (hydroxypropylcellulose) (HPC) 102 % of control | dose: 400.0 mg/kg/injection, schedule: Q01DX009 (ip), vehicle: Klucel (hydroxypropylcellulose) (HPC) 96 % of control
